Active and inactive are the calls of the source. No cut-off for these calls is given here.
Experiments:
[1] = biological target: Mu-type opioid receptor (Homo sapiens, UniProt P35372); assay: biochemical
[2] = system: Rattus norvegicus; assay: Antinociceptive activity in Sprague-Dawley rat dosed intravenously using cumulative dosing every 5 mins until rat maxed-out on hot plate by hot plate test; format: functional; settings: iv
[3] = system: Rattus norvegicus; assay: Antinociceptive activity in Sprague-Dawley rat dosed intravenously using cumulative dosing every 5 mins until rat maxed-out on hot plate co-treated with 0.1 mg/kg naltrexone by hot plate test; format: functional, organism-based
[4] = Protein binding in human plasma at 1 uM by equilibrium dialysis; format: ADME, cell-free; settings: read-out: PPB (converted)
[5] = biological target: T1, Delta-type opioid receptor (Homo sapiens, UniProt P41143); assay: Antagonist activity at human recombinant delta opioid receptor expressed in rat Chem-1 (RBL) cells assessed as inhibition of DPDPE-induced intracellular calcium levels incubated at room temperature by fluorimetry; format: functional, cell-based
T1 sequence (P41143 whole entry): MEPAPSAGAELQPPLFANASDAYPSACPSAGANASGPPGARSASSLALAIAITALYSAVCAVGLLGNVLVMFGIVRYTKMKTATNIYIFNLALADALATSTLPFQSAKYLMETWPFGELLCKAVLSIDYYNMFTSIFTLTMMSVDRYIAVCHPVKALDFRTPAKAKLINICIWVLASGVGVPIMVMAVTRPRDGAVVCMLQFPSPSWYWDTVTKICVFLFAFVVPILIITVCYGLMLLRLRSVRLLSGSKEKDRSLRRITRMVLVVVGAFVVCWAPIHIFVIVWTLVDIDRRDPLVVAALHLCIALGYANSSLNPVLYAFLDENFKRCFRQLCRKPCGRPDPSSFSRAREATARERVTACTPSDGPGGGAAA

[6] = human, microsomes, 1 h
[7] = biological target: T1, Delta-type opioid receptor; assay: Displacement of [3H]DADLE from human recombinant delta opioid receptor expressed in rat Chem-1 (RBL) cell membranes at 100 nM incubated for 60 mins relative to control
[8] = in vitro; settings: human, plasma
[9] = Toxicity in Sprague-Dawley rat assessed as induction of hypothermia at 0.0032 to 10 mg/kg, iv; format: organism-based; settings: in vivo
[10] = biological target: T1, Delta-type opioid receptor; assay: Displacement of [3H]DADLE from human recombinant delta opioid receptor expressed in rat Chem-1 (RBL) cell membranes at 10000 nM incubated for 60 mins relative to control
[11] = human, microsomes, 1 µM
[12] = biological target: T1, Delta-type opioid receptor; assay: biochemical
[13] = system: Rattus norvegicus; assay: Antinociceptive activity in Sprague-Dawley rat dosed intravenously using cumulative dosing every 5 mins until rat maxed-out on hot plate by hot plate test relative to control; format: functional
[14] = biological target: Kappa-type opioid receptor (Homo sapiens, UniProt P41145); assay: Displacement of [3H]U69,593 from human recombinant kappa opioid receptor expressed in rat RBL cell membranes incubated for 60 mins
Sequence of Kappa-type opioid receptor (P41145 whole entry): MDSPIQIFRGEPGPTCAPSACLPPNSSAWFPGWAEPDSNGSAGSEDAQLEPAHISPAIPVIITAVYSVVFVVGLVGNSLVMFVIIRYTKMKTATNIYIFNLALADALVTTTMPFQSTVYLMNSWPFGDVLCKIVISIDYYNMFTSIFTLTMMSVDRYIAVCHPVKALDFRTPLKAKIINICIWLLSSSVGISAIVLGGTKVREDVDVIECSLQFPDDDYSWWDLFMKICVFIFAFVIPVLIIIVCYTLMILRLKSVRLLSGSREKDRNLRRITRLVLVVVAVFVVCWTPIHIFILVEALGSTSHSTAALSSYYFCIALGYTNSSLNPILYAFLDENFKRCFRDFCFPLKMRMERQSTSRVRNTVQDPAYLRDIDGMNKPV

Sequence of Mu-type opioid receptor (P35372 whole entry): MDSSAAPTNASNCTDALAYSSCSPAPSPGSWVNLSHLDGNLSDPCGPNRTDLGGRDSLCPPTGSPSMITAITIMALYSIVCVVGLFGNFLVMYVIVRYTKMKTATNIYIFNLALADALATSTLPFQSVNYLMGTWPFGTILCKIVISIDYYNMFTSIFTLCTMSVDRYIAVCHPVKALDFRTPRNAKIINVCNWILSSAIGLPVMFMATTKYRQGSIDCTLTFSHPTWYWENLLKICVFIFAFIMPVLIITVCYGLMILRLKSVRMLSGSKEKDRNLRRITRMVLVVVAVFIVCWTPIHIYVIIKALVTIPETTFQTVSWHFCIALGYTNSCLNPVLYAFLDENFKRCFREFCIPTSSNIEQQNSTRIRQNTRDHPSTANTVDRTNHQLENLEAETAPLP

| SMILES | Ki [1] [nM] | ED50 [2] [mg/kg] | Activity [3] | fraction unbound at 1 µM [4] | Kb [5] [nM] | Kel [6] [min⁻¹] | inhibition [7] [%] | fraction unbound at 1 µM [8] | Activity [9] | inhibition [10] [%] | Fu [11] | Ki [12] [nM] | MPE [13] [%] | Ki [14] [nM] |
| --- | --- | --- | --- | --- | --- | --- | --- | --- | --- | --- | --- | --- | --- | --- |
| CC[C@@H]1CN2CCc3c([nH]c4cccc(O)c34)[C@@H]2C[C@@H]1/C(=C\OC)C(=O)OC | 105 | – | – | – | – | – | – | – | – | – | – | – | – | – |
| CN1CC[C@]23c4c5ccc(O)c4O[C@H]2[C@@H](O)C=C[C@H]3[C@H]1C5 [MORPHINE] | – | 5.1 | inactive | – | – | – | – | – | – | – | – | – | – | – |
| CC[C@@H]1CN2CC[C@@]3(O)C(=Nc4cccc(OC)c43)[C@@H]2C[C@@H]1/C(=C\OC)C(=O)OC | – | 1.91 | inactive | 0.1 | 550 | 0.0041 | 19.6 | 0.1 | Non-Toxic | 93.7 | 0.852 | 236 | 100 | 74.1 |
